Assay results as given in patent US20260286316A1, “METHOD OF PRODUCTION OF MODIFIED PHAGE AND METHOD OF TREATMENT USING SAME” (priority 2022, published 2026).
Converted amounts (≈) assume the structure as drawn.

Columns and labels:
S. aureus ATCC51650 = assay: Clindamycin MIC, broth microdilution; assay type: cell-based; details: Staphylococcus aureus
Protocol: (§1) The minimum inhibitory concentration (MIC) of amoxicillin, vancomycin, erythromycin, clindamycin and azithromycin against the S. aureus strains was assessed using the broth microdilution technique as previously described (Wiegand I et al., Nature protocols 3 (2): 163-175, 2008) and breakpoints defined according to CSLI guidelines. Clinical strains resistant to at least one antibiotic in three or more antibiotic categories were defined as multidrug resistant (MDR).

S. aureus CI11 = assay: Clindamycin MIC, broth microdilution; assay type: cell-based; details: Staphylococcus aureus
Protocol: as §1

[1] = test system: S. aureus ATCC51650 and CI11; assay: Time-dependent interaction of phage J-Sa36 and clindamycin (OD600); assay type: cell-based, Staphylococcus aureus; details: ½ MIC clindamycin only or J-Sa36 (MOI 0.2) only
Protocol: OD600 readings were taken at addition of either phage or clindamycin and following the 24-hour incubation.
The total amount of phage J-Sa36 added into the culture at different time points was adjusted to maintain MOI=0.2, according to the number of bacteria measured via CFU counts at each time point.

[2] = test system: S. aureus ATCC51650 and CI11 biofilms; assay: Biofilm viability, AlamarBlue assay; assay type: cell-based, Staphylococcus aureus
Protocol: Briefly, a 1.0 McFarland unit S. aureus culture suspended in 1:15 dilution in TSB was added to 96-well microtiter plates (Costar; Corning Incorporated, Corning, NY, United States of America). Plates were incubated for 48 hours at 37° C. on a rotating platform at 70 rpm (3D Gyratory Mixer; Ratek Instruments, Boronia, VIC, Australia) to allow biofilm formation followed by washing with phosphate-buffered saline. […] Wells were treated for 24 hours at 37° C. with gentle shaking. The AlamarBlue viability assay (Thermo Fisher Scientific, Waltham, MA, United States of America) was used as previously described (Richter K et al., editors. Mind “De GaPP”: in vitro efficacy of deferiprone and gallium-protoporphyrin against Staphylococcus aureus biofilms. International Forum of Allergy & Rhinology; 2016: Wiley Online Library to determine the anti-biofilm activity of the phage. Fluorescence was measured in a microplate reader (FLUOstar OPTIMA, BMG LABTECH, Offenburg, Germany) and the percent reduction of biofilm after treatment determined relative to untreated controls.

S. aureus C319 = assay: Clindamycin MIC assay (Example 2); assay type: cell-based; details: Staphylococcus aureus; strain C319
Protocol: (§2) The MIC of clindamycin against the S. aureus strains was assessed using the broth microdilution technique as previously described (see Wiegand et al., 2008 supra). Results were interpreted as follows: Sensitive: ≤0.2 μg/mL; Intermediate: 0.4 μg/ml; Resistant: >0.6 μg/mL. The S. aureus strains sensitive to clindamycin were selected for further tests. The MIC was performed three times.

S. aureus ATCC25923 = assay: Clindamycin MIC assay (Example 2); assay type: cell-based; details: Staphylococcus aureus; strain ATCC25923
Protocol: as §2

S. aureus C285 = assay: Clindamycin MIC assay (Example 2); assay type: cell-based; details: Staphylococcus aureus; strain C285
Protocol: as §2

S. aureus C330 = assay: Clindamycin MIC assay (Example 2); assay type: cell-based; details: Staphylococcus aureus; strain C330
Protocol: as §2

S. aureus C43 = assay: Clindamycin MIC assay (Example 2); assay type: cell-based; details: Staphylococcus aureus; strain C43
Protocol: as §2

S. aureus CI3 = assay: Rat rhinosinusitis model, efficacy arm (sinus mucosa CFU, biofilm biomass, histopathology); assay type: in vivo, Sprague Dawley rats; details: Sa87, ½ MIC clindamycin or ½ MIC azithromycin only
Source text: Rat nasal tissues were fixed in 10% neutral buffered formalin. Tissue samples were then decalcified using 9.5% nitric acid in 1% ethylenediaminetetracetic acid (EDTA), processed to paraffin wax, and 6 μm sections cut and stained with H&E. The samples were examined by a veterinary pathologist blinded to the treatments given.
An established murine rhinosinusitis model was used with modifications (see YU C-j et al., Chinese Journal of Otorhinolaryngology-Skull Base Surgery 6, 2011; Zhang F et al., Am J Rhinol Allergy 27 (5): 361-366, 2013; and Jin M et al., Ear Arch Oto-Rhino-L 268 (6): 857-861, 2011). […] The sponges were placed at approximately 15 mm from the anterior nostril, located in the ostiomeatal complex. The rats were monitored for a nine-day period to allow for mucosal biofilms to form, and, on the tenth day, the sponges were removed. A two-day recovery was given to the rat before treatments begun. […] Treatments were administered intranasally twice a day for 14 days. Rats were monitored for weight and respiratory alterations (respiration rate; nasal discharge, hyperaemia or pruritus; and sneezing) during treatment, and, 14 days post-treatment initiation, the rats were humanely sacrificed. Their sinus mucosa was harvested for CFU counting, biofilm quantification, histopathology, and phage enumeration. […]
The quantification of biofilm biomass on sinus mucosa was determined using an established protocol (Singhal D et al., editors. Quantitative analysis of in vivo mucosal bacterial biofilms. International Forum of Allergy & Rhinology; 2012: Wiley Online Library (27). Briefly, the frontal sinus mucosa was harvested and placed into Dulbecco's Modified Eagle's Medium (Life Technologies, Carlsbad, CA, United States of America) on ice. One piece of mucosa from each frontal sinus was stained with a LIVE/DEAD® BacLight Bacterial Viability Kit (Life Technologies Australia). The stained mucosa was then examined at 20× magnification using a confocal laser scanning microscope (Zeiss LSM700, Carl Zeiss AG, Oberkochen, Germany). […]

CCC[C@@H]1C[C@@H](C(=O)N[C@@H]([C@H]2O[C@H](SC)[C@H](O)[C@@H](O)[C@H]2O)[C@H](C)Cl)N(C)C1 [clindamycin]
MIC (S. aureus ATCC51650): 0.2 µg/mL (≈ 0.471 µM) | MIC (S. aureus CI11): 0.2 µg/mL (≈ 0.471 µM) | bacterial viability at 24 hours, single agent [1]: did not significantly affect bacterial viability | reduction of clindamycin concentration required to significantly reduce biofilm viability by combination with phage [2]: five | minimal effective concentration ([2]; Staphylococcus aureus, ATCC51650, 24 hours treatment, lower concentrations no significant effect, read-out: clindamycin alone: concentration significantly reducing viability of preformed biofilms): ≥ 0.5 µg/mL | MIC (S. aureus C319): 0.2 µg/mL (≈ 0.471 µM) | MIC (S. aureus ATCC25923): 0.2 µg/mL (≈ 0.471 µM) | MIC (S. aureus C285): 0.2 µg/mL (≈ 0.471 µM) | MIC (S. aureus C330): 0.2 µg/mL (≈ 0.471 µM) | MIC (S. aureus C43): 0.2 µg/mL (≈ 0.471 µM) | histopathology of the maxilloturbinates, single agent (S. aureus CI3): evidence of cilial denudation and surface epithelial erosion
